One test has as its system SMS. Conditions: reported weak inhibitory activity; cited from earlier work.
For test [1], the target named is T1, Sphingomyelin Synthase 1 (SMS1 pure enzyme) (Homo sapiens, UniProt Q86VZ5).
T1 construct: Yu, Cao research group of National Protein Science Center (Shanghai)
T1 sequence (Q86VZ5 1-413): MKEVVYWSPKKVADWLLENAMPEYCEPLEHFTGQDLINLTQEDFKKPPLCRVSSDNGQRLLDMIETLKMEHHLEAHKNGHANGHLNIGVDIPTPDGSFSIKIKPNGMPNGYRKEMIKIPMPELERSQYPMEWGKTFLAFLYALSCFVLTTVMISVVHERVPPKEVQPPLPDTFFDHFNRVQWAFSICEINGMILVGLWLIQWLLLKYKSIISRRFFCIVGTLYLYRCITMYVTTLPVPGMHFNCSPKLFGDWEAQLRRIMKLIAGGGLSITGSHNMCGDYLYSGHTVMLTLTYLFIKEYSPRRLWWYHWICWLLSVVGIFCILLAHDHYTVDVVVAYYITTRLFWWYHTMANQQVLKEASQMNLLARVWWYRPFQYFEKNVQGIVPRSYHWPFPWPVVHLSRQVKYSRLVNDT
Nature of the test: In vitro SMS1 pure enzyme inhibition, HPLC fluorogenic quantitative detecting method. It counts as biochemical. Conditions: for inhibition at 50 µM: single concentration 50 μM. The text has this: Referring to the above SMS2 inhibitory activity detection method, and using SMS1 pure enzyme instead of SMS2 pure enzyme for corresponding operation.
(§1) Using the same HPLC fluorogenic quantitative detecting method as reference (Xiaodong Deng; Hong Sun; et al. Analytical Letters, 2012, 45:12, 1581-1589) to analyses samples obtained above. Analysize and record peak areas of C6-NBD-SM (Asm) and C6-NBD-Ceramide (Acer) of each sample from blank group, positive control group (compound D2) and under tested compound group. Calculate inhibition rate from the formula below: […]
Part 4. Determination of SMS1 Median Inhibitory Concentration (IC50) and SMS1 Single Concentration (50 μM) Inhibitory Concentration of Alkoxybenzeno Five- or Six-Member Heterocyclic Amines (Scheme I-1˜I-38)
The experiment can be carried out with the corresponding concentration according to the operation similar to the determination of the median inhibitory concentration (IC50) of SMS2.

The target in test [2] is T2, Sphingomyelin Synthase 2 (SMS2 pure enzyme) (Homo sapiens, UniProt Q8NHU3).
T2 construct: Yu, Cao research group of National Protein Science Center (Shanghai)
T2 sequence (Q8NHU3 1-365): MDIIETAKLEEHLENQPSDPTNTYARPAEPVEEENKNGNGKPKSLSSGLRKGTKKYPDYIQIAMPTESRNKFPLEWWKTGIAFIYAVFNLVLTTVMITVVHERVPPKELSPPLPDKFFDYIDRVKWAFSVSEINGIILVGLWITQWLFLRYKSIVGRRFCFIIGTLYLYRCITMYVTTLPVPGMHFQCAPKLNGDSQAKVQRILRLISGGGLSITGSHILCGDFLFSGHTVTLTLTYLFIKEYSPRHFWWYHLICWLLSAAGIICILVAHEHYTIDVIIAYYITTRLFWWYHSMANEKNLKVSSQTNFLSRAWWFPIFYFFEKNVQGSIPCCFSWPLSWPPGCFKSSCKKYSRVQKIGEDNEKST
Kind of test: In vitro SMS2 pure enzyme inhibition, HPLC fluorogenic quantitative detecting method (C6-NBD-Ceramide to C6-NBD-SM). It counts as biochemical. The conditions noted are these: for IC50: SMS2 pure enzyme, five concentrations, three parallel groups, experimental value; for Selectivity ratio: SMS1 IC50 relative to SMS2 IC50. The method, then:
Add […] SMS2 pure enzyme DDM solution (total protein content 1.5 μg/μL), 1 μL test compound in DMSO solution or blank DMSO solution, 79.7 μL DDM buffer to 1.5 mL Eppendorf tube, vortex 30 seconds, let stand at room temperature for 5 min. Then add 20 μL DDM buffer containing 1 μL DMPC in ethanol (40 mmol/L) and 1 μL C6-NBD-Ceramide in DMSO (1.16 mmol/L). After vortexing for 30 seconds, Incubate for 0.5 h under water bath at 37° C. Then remove, add 200 μL of absolute ethanol, and vortex for 30 seconds. Take out 200 μL of the mixture and store it at 4° C. for high performance liquid chromatography analysis.
as §1
The DMSO stock solution of under tested compound (6 mM) was diluted stepwise into five concentration gradient. 1 μL solution of each concentration was added into the trial system to prepare samples with the method mentioned in the first step of application case 15. The Asm values of the five concentration solution of tested compound were measured (compound D2 is a positive control), and the inhibition rate under the five concentration were calculated and fitted to obtain median inhibitory concentration (IC50). Each compound was measured three parallel groups. SMS2 median inhibitory concentration and SMS1 single inhibitory concentration (50 μM) of Scheme I-1˜I-38, and SMS1 median inhibitory concentration of some compounds are listed below in Table 1.

For 15 compounds, IC50, inhibition and Selectivity ratio results are on record in patent US11396504B2, “Alkoxybenzo-five-membered (six-membered) heterocyclic amine compound and pharmaceutical use thereof” (FUDAN UNIVERSITY, priority 2018, dated 2022).

For orientation: IC50 means the concentration that gives 50% inhibition. Turning to `S=C(S)OC1CC2CC1C1CCCC21` (stereo not drawn) [Scheme D609], in the test with SMS, the IC50 was 375 µM.

As usually defined, the inhibition is the change of the read-out against control, counted positive when it falls. In the case of `FC(F)(F)Oc1cccc(COc2cccc3onc(Nc4cccnc4)c23)c1` [Scheme I-20, 4-((3-Trifluoromethoxybenzyl)oxy)-N-(pyridin-3-yl)benzo[d]-isoxazol-3-amine], in test [1], the inhibition at 50 µM was 30%. Also, in test [2], the IC50 was 1.27 µM.

Turning to `FC(F)(F)Oc1ccc(COc2cccc3onc(Nc4cccnc4)c23)cc1` [Scheme I-21, 4-((4-Trifluoromethoxybenzyl)oxy)-N-(pyridin-3-yl)benzo[d]-isoxazol-3-amine], the inhibition at 50 µM in test [1] worked out at 5%. The IC50 in test [2] is more than 10 µM.

For the compound `N#Cc1ccccc1COc1cccc2onc(Nc3cccnc3)c12` [Scheme I-22, 4-((2-Cyanobenzyl)oxy)-N-(pyridin-3-yl)benzo[d]isoxazol-3-amine], in test [1], the inhibition at 50 µM was found to be 4%. In test [2], inhibition was half-maximal at 4.14 µM (IC50).

`N#Cc1cccc(COc2cccc3onc(Nc4cccnc4)c23)c1` [Scheme I-23, 4-((3-Cyanobenzyl)oxy)-N-(pyridin-3-yl)benzo[d]isoxazol-3-amine]: the inhibition at 50 µM in test [1] was determined as 8%. Also, in test [2], the IC50 was 0.945 µM.

Turning to `Cc1cccc(C)c1COc1cccc2onc(Nc3cccnc3)c12` [Scheme I-25, 4-((2,6-Dimethylbenzyl)oxy)-N-(pyridin-3-yl)benzo[d]isoxazol-3-amine], in test [1], the midpoint of inhibition, the IC50, lay at 47 µM and the inhibition at 50 µM amounted to 53%. For the same compound, in test [2], the Selectivity ratio was found to be 307 and the IC50 was found to be 0.153 µM.

For the compound `Clc1cccc(Cl)c1COc1cccc2onc(Nc3cccnc3)c12` [Scheme I-26, 4-((2,6-Dichlorobenzyl)oxy)-N-(pyridin-3-yl)benzo[d]isoxazol-3-amine], in test [1], half-maximal inhibition (IC50) required 70 µM and the inhibition at 50 µM turned out to be 25%. Also, in test [2], the Selectivity ratio is on record as 886 and the midpoint of inhibition, the IC50, lay at 0.079 µM.

`Fc1cccc(F)c1COc1cccc2onc(Nc3cccnc3)c12` [Scheme I-27, 4-((2,6-Difluorobenzyl)oxy)-N-(pyridin-3-yl)benzo[d]isoxazol-3-amine]: in test [1], the inhibition at 50 µM was 30%. For the same compound, in test [2], inhibition was half-maximal at 0.72 µM (IC50).

`c1ccc(COc2cccc3snc(Nc4cccnc4)c23)cc1` [Scheme I-31, 4-(benzyloxy)-N-(pyridin-3-yl)benzo[d]isothiazol-3-amine]: the inhibition at 50 µM in test [1] came to 13%. In addition, in test [2], the IC50 amounted to 1.46 µM.

As to `Fc1ccc(Cl)c(COc2cccc3onc(Nc4cncnc4)c23)c1` [Scheme I-33, 4-((2-chloro-5-fluorobenzyl)oxy)-N-(pyrimidin-5-yl)benzo[d]isoxazol-3-amine], the inhibition at 50 µM in test [1] came to 60%. Also, in test [2], the IC50 stood at 0.86 µM.

In the case of `CCN(CC)CC(=O)Nc1noc2cccc(OCc3cc(F)ccc3Cl)c12` [Scheme I-35, N-(4-((2-chloro-5-fluorobenzyl)oxy)benzo[d]isoxazol-3-yl)-2-(diethylamino) acetamide], the inhibition at 50 µM in test [1] is 11%. The IC50 in test [2] was more than 10 µM.

Consider `O=C(CN1CCCC1)Nc1noc2cccc(OCc3cc(F)ccc3Cl)c12` [Scheme I-36, N-(4-((2-chloro-5-fluorobenzyl)oxy)benzo[d]isoxazol-3-yl)-2-(pyrrolidin-1-y) acetamide], for which the inhibition at 50 µM in test [1] amounted to 9%. Moreover, the IC50 in test [2] was more than 10 µM.

`O=C(CN1CCCCC1)Nc1noc2cccc(OCc3cc(F)ccc3Cl)c12` [Scheme I-37, N-(4-((2-chloro-5-fluorobenzyl)oxy)benzo[d]isoxazol-3-yl)-2-(piperidin-1-yl)acetamide]: in test [1], the inhibition at 50 µM is 60%. In addition, the IC50 in test [2] was more than 10 µM.

As for `O=C(CN1CCOCC1)Nc1noc2cccc(OCc3cc(F)ccc3Cl)c12` [Scheme I-38, N-(4-((2-chloro-5-fluorobenzyl)oxy)benzo[d]isoxazol-3-yl)-2-morpholinoacetamide], the inhibition at 50 µM in test [1] was -1%. Moreover, in test [2], the IC50 was more than 10 µM.

For the compound `c1ccc(-c2cc(COc3cccc4onc(Nc5cccnc5)c34)ccn2)cc1` [Scheme I-39, 4-((2-phenylpyridin-4-yl)methoxy)-N-(pyridin-3-yl)benzo[d]isoxazol-3-amine], the inhibition at 50 µM in test [1] was -6%. In addition, in test [2], the IC50 was determined as 13 µM.
